Reference: patent publication US7312219B2, “Heteroaromatic inhibitors of fructose 1,6-bisphosphatase” (Metabasis Therapeutics, Inc., priority 1998, dated 2007)
Where two headings read alike, the source gives them in different places.

Legend:
[1] = target: T1, Adenylate Kinase (rabbit muscle) (Oryctolagus cuniculus, UniProt P00569); test: AMP Site/Enzyme Selectivity: Adenylate Kinase; type: biochemical; conditions: read-out: Adenylate Kinase (inh.)
T1 construct: Enzyme (rabbit muscle) was purchase from Sigma; purchased Sigma; host or cells: rabbit muscle
T1 sequence (P00569 1-194): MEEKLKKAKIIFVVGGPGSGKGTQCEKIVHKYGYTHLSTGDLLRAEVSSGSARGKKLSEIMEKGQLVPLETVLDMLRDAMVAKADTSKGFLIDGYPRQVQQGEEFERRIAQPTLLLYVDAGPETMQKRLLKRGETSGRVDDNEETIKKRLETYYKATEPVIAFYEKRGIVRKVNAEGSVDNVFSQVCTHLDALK

Human adenosine kinase = target: T2, Human adenosine kinase (Homo sapiens, UniProt P55263); test: AMP Site/Enzyme Selectivity: Adenosine Kinase; type: biochemical; conditions: read-out: Adenosine Kinase (inh.)
T2 construct: made in house; host or cells: E. coli
T2 sequence (P55263 1-345 isoform P55263-2): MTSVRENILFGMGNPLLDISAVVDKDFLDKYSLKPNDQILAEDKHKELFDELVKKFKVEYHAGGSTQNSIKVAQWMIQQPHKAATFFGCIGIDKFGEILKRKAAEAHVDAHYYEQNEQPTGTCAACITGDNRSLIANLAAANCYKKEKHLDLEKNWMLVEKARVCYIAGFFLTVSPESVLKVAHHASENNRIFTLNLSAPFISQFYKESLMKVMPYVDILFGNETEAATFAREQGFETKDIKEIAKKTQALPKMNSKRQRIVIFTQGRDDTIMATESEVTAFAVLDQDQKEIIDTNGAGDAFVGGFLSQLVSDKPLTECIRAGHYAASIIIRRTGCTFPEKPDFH

Fasted Rats = test: Blood Glucose Lowering Following Intravenous Administration to Fasted Rats; type: in vivo, rat; conditions: Rattus norvegicus, iv; 18 h fasted Sprague Dawley rats, 10 mg/kg i.v., 1 hour, relative to saline-treated controls
Description: Inhibitors were disolved in water and the solution adjusted to neutrality with NaOH. Blood samples were obtained from the tail vein of conscious animals just prior to injection and after 1 hour. Blood glucose was measured using a HemoCue Inc. glucose analyzer according to the instructions of the manufacturer.

Porcine heart AMPDA = test: AMP Site/Enzyme Selectivity: Adenosine Monophosphate Deaminase; type: biochemical; conditions: read-out: AMP Deaminase (inh.)
[2] = target: T3, Glycogen Phosphorylase (rabbit muscle) (Oryctolagus cuniculus, UniProt P00489); test: AMP Site/Enzyme Selectivity: Glycogen Phosphorylase; type: biochemical; conditions: activation; read-out: Glycogen Phosphorylase (act.)
T3 construct: Enzyme (rabbit muscle) was purchased from Sigma; purchased Sigma; host or cells: rabbit muscle
T3 sequence (P00489 2-843 limits assumed): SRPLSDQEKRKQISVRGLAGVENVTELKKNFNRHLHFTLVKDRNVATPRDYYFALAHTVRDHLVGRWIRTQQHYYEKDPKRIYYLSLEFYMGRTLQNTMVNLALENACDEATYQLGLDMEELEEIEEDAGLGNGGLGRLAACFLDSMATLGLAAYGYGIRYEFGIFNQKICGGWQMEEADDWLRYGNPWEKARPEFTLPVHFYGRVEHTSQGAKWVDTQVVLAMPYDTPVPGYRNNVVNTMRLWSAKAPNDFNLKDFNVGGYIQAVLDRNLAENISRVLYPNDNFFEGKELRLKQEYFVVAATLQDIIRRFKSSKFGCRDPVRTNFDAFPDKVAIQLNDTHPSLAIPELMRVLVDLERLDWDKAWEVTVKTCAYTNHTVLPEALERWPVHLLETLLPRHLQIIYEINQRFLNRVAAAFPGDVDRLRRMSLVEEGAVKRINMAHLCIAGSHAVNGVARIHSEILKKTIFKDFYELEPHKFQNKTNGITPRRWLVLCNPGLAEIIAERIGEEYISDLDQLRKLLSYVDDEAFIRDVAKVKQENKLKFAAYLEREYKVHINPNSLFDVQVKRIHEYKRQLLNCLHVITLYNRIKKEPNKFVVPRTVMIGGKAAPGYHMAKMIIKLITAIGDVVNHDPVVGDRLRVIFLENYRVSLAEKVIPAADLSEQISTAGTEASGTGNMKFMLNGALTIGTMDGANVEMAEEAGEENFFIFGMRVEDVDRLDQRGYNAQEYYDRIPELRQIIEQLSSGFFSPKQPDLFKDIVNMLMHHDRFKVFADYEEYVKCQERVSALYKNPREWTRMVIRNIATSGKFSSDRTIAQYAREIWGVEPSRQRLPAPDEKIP

[3] = tested on: Gluconeogenesis in Rat Hepatocytes; test: Inhibition of Gluconeogenesis in Rat Hepatocytes; type: cell-based; conditions: Hepatocyte, 10 mM lactate, 1 mM pyruvate, 1 hour incubation, read-out: IC50 Glucose Production
Description: Hepatocytes were prepared from overnight fasted Sprague-Dawley rats (250–300 g) according to the procedure of Berry and Friend (Berry, M. N., Friend, D. S., 1969, J. Cell. Biol. 43, 506–520) as modified by Groen (Groen, A. K., Sips, H. J., Vervoorn, R. C., Tager, J. M. , 1982, Eur. J. Biochem. 122, 87–93). Hepatocytes (75 mg wet weight/ml) were incubated in 1 ml Krebs-bicarbonate buffer containing 10 mM Lactate, 1 mM pyruvate, 1 mg/ml BSA, and test compound concentrations from 1 to 500 μM. Incubations were carried out in a 95% oxygen, 5% carbon dioxide atmosphere in closed, 50-ml Falcon tubes submerged in a rapidly shaking water bath (37° C.). After 1 hour, an aliquot (0.25 ml) was removed, transferred to an Eppendorf tube and centrifuged. 50 μl of supernatant was then assayed for glucose content using a Sigma Glucose Oxidase kit as per the manufacturer's instructions.

[4] = Estimation of the Oral Bioavailability of Phosphonic Acids and their Prodrugs; type: in vivo, rat; conditions: Sprague-Dawley, rat, urine; fasted rats, oral 10–50 mg/kg, 24 h urinary recovery of phosphonic acid, oral vs intravenous
Description: Phosphonic acids were dissolved in water, and the solution adjusted to neutrality with sodium hydroxide. Prodrugs were dissolved in 10% ethanol/90% polyethlene glycol (mw 400). Compound was administered by oral gavage to 18-hour fasted Sprague-Dawley rats (220–250 g) at doses ranging from 10–50 mg/kg. The rats were subsequently placed in metabolic cages and urine was collected for 24 hours. The quantity of phosphonic acid excreted into urine was determined by HPLC analysis as described in Example G. In a separate study, urinary recovery was determined following intravenous (tail vein) administration of compound (in the case of the prodrugs, the appropriate parent phosphonic acid was administered i.v.).

human liver FBPase = target: T4, human liver FBPase (Homo sapiens, UniProt P09467); test: Inhibition of Human Liver FBPase; type: biochemical; conditions: read-out: IC50 (hlFBPase)
T4 construct: made in house; host or cells: E. coli BL21
T4 sequence (P09467 2-338 limits assumed): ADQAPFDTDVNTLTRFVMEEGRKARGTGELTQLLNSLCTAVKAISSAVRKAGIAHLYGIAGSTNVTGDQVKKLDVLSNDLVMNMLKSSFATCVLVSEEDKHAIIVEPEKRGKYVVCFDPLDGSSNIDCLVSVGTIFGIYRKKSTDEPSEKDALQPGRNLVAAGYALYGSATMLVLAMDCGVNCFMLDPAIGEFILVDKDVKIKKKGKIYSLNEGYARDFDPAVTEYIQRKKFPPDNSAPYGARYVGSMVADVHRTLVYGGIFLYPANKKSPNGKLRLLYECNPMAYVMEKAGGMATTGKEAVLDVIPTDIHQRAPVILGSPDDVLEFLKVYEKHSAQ

rat liver FBPase = target: T5, rat liver FBPase (Rattus norvegicus, UniProt P19112); test: Inhibition of Rat Liver FBPase
T5 sequence (P19112 2-363 limits assumed): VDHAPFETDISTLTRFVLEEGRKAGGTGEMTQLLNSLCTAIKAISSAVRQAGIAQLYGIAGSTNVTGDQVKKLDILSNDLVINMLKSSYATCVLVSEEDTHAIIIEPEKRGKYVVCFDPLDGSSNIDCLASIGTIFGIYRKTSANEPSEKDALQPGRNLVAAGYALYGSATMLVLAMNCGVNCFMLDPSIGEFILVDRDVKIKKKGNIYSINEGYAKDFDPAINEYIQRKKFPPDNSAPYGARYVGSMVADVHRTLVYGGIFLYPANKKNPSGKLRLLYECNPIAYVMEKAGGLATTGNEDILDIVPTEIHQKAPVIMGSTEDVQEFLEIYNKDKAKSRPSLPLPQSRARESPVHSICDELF
Description: Enzymatic activity was measured spectrophotometrically in reactions that coupled the formation of product (fructose 6-phosphate) to the reduction of dimethylthiazoldiphenyltetrazolium bromide (MTT) via NADP^+ and phenazine methosulfate (PMS), using phosphoglucose isomerase and glucose 6-phosphate dehydrogenase as the coupling enzymes.
E. coli strain BL21 transformed with a rat liver FBPase-encoding plasmid was obtained from Dr. M. R. El-Maghrabi at the State University of New York at Stony Brook.

[5] = Analysis of Drug Levels and Liver Accumulation in Rats; type: in vivo, rat; conditions: fasted rats, 10 mgs/kg i.v., one hour post injection, liver
Description: The compound was dissolved in water and the solution adjusted to neutrality with NaOH. One hour post injection rats were anesthetized with halothane and a liver biopsy (approx. 1 g) was taken as well as a blood sample (2 ml) from the posterior vena cava. A heparin flushed syringe and needle were used for blood collection. The liver sample was immediately homogenized in ice-cold 10% perchloric acid (3 ml), centrifuged, and the supernatant neutralized with ⅓rd volume of 3 M KOH/3 M KHCO3. […] Plasma was prepared from the blood sample by centrifugation and extracted by addition of methanol to 60% (v/v). The methanolic extract was clarified by centrifugation and filtration and then analyzed by HPLC as described above.

Fasted Rat = test: Glucose Lowering Following Oral Administration to the Fasted Rat; type: in vivo; conditions: oral gavage, 18-hour fasted rats, dose 90 mg/kg, time point 3 h, relative to saline controls
Description: Compounds were administered by oral gavage to 18-hour fasted, Sprague Dawley rats (250–300 g, n =3/4/group). Phosphonic acids were prepared in deionized water, and the solution adjusted to neutrality with solidum hydroxide. Prodrugs were dissolved in polyethylene glycol (mw 400). […] The table below indicates the maximum glucose lowering achieved relative to control animals dosed with saline.

For `CCc1cc(CC)c(-c2ccc(P(=O)(O)O)o2)nc1N` [Compound 15.4, 2-amino-3,5-diethyl-6-[2-(5-phosphono)furanyl]pyridine], the melting point was 217 to 218 °C.
For `CC(C)Cc1sc(N)nc1-c1ccc(P(=O)(O)O)o1` [Compound 3.1, 2-amino-5-isobutyl-4-[2-(5-phosphono)furanyl]thiazole], the IC50 [1] was > 500 µM, the IC50 (Human adenosine kinase) was > 10 µM and the inhibition in vivo at 10 mg/kg (Fasted Rats) was 65%. The IC50 (Porcine heart AMPDA) was > 10 µM, the EC50 [2] was > 100 µM and the IC50 [3] was 2500 nM. The bioavailability [4] was 4%.
For `CC(C)Cc1[se]c(N)nc1-c1ccc(P(=O)(O)O)o1` [Compound 3.70, 2-Amino-5-isobutyl-4-[2-(5-phosphono)furanyl]selenazole], the IC50 (human liver FBPase) was 40 nM and the IC50 (rat liver FBPase) was 0.15 µM.
For `CC(C)Cc1oc(N)nc1-c1ccc(P(=O)(O)O)o1` [Compound 10.1, 2-amino-5-isobutyl-4-[2-(5-phosphono)furanyl]oxazole], the IC50 [1] was > 500 µM, the “Liver Conc.” value [5] was 35.6 ± 4.2 nmol/g and the IC50 (Human adenosine kinase) was > 10 µM. For the same molecule, the inhibition in vivo at 10 mg/kg (Fasted Rats) was 51%, the IC50 (Porcine heart AMPDA) was > 10 µM and the EC50 [2] was > 100 µM. For the same molecule, the bioavailability [4] was 21% and the “% Glucose Lowering (maximum)” value (Fasted Rat) was 55%.
Work on `Nc1ncnc2c1ncn2[C@@H]1O[C@H](COP(=O)(O)O)[C@@H](O)[C@H]1O` [AMP, reference compound] yielded an IC50 (human liver FBPase) of 1000 nM and an IC50 (rat liver FBPase; read-out: IC50 (rlFBPase)) of 20 µM.
